Test results taken from US20210024545A1, “SUBSTITUTED DIAZAHETERO-BICYCLIC COMPOUNDS AND THEIR USE” (Bayer Aktiengesellschaft, priority 2016, published 2021).

How the values were obtained:
human TASK-1 = human TASK-1 (Homo sapiens, UniProt O14649); assay: Inhibition of recombinant TASK-1 in stably transfected CHO cells, KCl-induced depolarization, voltage-sensitive dye (B-2); assay type: cell-based; parameters: expressed in transfected cells; host or cells: stably transfected CHO cells; conditions: depolarization induced by 40 mM potassium chloride, some mean values from multiple determinations
human TASK-1, sequence (O14649 whole entry): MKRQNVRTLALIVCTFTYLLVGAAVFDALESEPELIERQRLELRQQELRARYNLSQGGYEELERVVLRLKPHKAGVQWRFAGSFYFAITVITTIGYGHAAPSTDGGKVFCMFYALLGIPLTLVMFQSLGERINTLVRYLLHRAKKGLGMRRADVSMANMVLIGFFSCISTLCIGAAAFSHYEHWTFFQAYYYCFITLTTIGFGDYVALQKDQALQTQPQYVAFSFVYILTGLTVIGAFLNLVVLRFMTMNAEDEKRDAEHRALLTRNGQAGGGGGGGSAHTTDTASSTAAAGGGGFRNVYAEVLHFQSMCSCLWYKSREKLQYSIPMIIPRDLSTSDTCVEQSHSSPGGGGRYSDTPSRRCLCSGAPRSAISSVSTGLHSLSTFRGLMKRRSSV
Procedure: (§1) B-2. Inhibition of Recombinant TASK-1 and TASK-3 In Vitro
(§2) The investigations on the inhibition of the recombinant TASK-1 and TASK-3 channels were conducted using stably transfected CHO cells. The compounds of the invention were tested here with administration of 40 mM of potassium chloride in the presence of a voltage-sensitive dye using the method described in detail in the following references [Whiteaker et al., Validation of FLIPR membrane potential dye for high-throughput screening of potassium channel modulators, J. Biomol. Screen. 6 (5), 305-312 (2001); Molecular Devices FLIPR Application Note: Measuring membrane potential using the FLIPR® membrane potential assay kit on Fluorometric Imaging Plate Reader (FLIPR®) systems, http://www.moleculardevices.com/reagents-supplies/assay-kits/ion-channels/flipr-membrane-potential-assay-kits]. The activity of the test substances was determined as their ability to inhibit a depolarization induced in the recombinant cells by 40 mM potassium chloride. The concentration which can block half of this depolarization is referred to as IC50).
(§3) Table 2 below lists the IC50 values from this assay determined for individual working examples of the invention (some as mean values from multiple independent individual determinations): […]

human TASK-3 = human TASK-3 (Homo sapiens, UniProt Q9NPC2); assay: Inhibition of recombinant TASK-3 in stably transfected CHO cells, KCl-induced depolarization, voltage-sensitive dye (B-2); assay type: cell-based; parameters: expressed in transfected cells; host or cells: stably transfected CHO cells; conditions: depolarization induced by 40 mM potassium chloride, some mean values from multiple determinations
human TASK-3, sequence (Q9NPC2 whole entry): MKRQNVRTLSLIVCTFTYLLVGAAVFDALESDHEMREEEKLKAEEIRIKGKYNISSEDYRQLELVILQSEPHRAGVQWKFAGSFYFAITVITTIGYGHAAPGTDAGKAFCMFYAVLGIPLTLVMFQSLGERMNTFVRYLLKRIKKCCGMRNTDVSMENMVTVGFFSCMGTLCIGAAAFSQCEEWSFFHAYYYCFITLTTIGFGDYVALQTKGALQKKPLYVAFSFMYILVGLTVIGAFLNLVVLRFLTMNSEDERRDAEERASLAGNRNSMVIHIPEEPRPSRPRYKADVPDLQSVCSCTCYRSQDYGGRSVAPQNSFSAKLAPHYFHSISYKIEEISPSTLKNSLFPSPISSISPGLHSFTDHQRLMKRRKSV
Procedure: as §1, §2, §3

Compound | IC50 (human TASK-1) | IC50 (human TASK-3)
CCOc1cccc(C(=O)N2CC3CCC2CN3Cc2c(-c3ccc(Cl)cc3)nc3ccccn23)c1 (single isomer, unassigned) [Example 54] | 470 nM | 76 nM
CC(C)c1ccccc1C(=O)N1C2CCC1CN(Cc1c(-c3ccc(Br)cc3)nc3ccccn13)C2 [Example 141, (3-{[2-(4-Bromophenyl)imidazo[1,2-a]pyridin-3-yl]methyl}-3,8-diazabicyclo[3.2.1]oct-8-yl)(2-isopropylphenyl)methanone] | 250 nM | 59 nM
CC(C)(C)OC(=O)N1CC2CCC(C1)N2Cc1c(-c2ccc(Cl)cc2)nc2ccccn12 [Example 6] | 394 nM | 410 nM
CCN(C(=O)N1C2CCC1CN(Cc1c(-c3ccc(Cl)cc3)nc3ccccn13)C2)c1ccc(C)cc1 [Example 181, 3-{[2-(4-Chlorophenyl)imidazo[1,2-a]pyridin-3-yl]methyl}-N-ethyl-N-(4-methylphenyl)-3,8-diazabicyclo[3.2.1]octane-8-carboxamide] | 4100 nM | 1000 nM
O=C(N1CCCC1)N1C2CCC1CN(Cc1c(-c3ccc(Cl)cc3)nc3ccccn13)C2 [Example 176, (3-([2-(4-Chlorophenyl)imidazo[1,2-a]pyridin-3-yl]methyl}-3,8-diazabicyclo[3.2.1]oct-8-yl)(pyrrolidin-1-yl)methanone] | 49 nM | 10 nM
O=C(C1CCCC1)N1CC2CCC(C1)N2Cc1c(-c2ccc(Br)cc2)nc2ccccn12 [Example 85] | 520 nM | 53 nM
O=C(OC1CCCCC1)N1C2CCC1CN(Cc1c(-c3ccc(Cl)cc3)nc3ccccn13)C2 [Example 187, Cyclohexyl 3-{[2-(4-chlorophenyl)imidazo[1,2-a]pyridin-3-yl]methyl}-3,8-diazabicyclo[3.2.1]octane-8-carboxylate] | 3800 nM | 200 nM
CCOc1cccc(C(=O)N2C3CC2CN(Cc2c(-c4ccc(Cl)cc4)nc4ccccn24)C3)c1 [Example 122] | 1100 nM | 120 nM
CCCOC(=O)N1C2COCC1CN(Cc1c(-c3ccc(Cl)cc3)nc3ccccn13)C2 [Example 197, Propyl 7-{[2-(4-chlorophenyl)imidazo[1,2-a]pyridin-3-yl]methyl}-3-oxa-7,9-diazabicyclo[3.3.1]nonane-9-carboxylate] | 150 nM | 13 nM
CC(C)(C)OC(=O)N1C2COCC1CN(Cc1c(-c3ccc(Cl)cc3)nc3ccccn13)C2 [Example 4, tert-Butyl 7-{[2-(4-chlorophenyl)imidazo[1,2-a]pyridin-3-yl]methyl}-3-oxa-7,9-diazabicyclo[3.3.1]nonane-9-carboxylate] | 560 nM | 43 nM
CC(C)(C)OC(=O)N1CC2CCC1CN2Cc1c(-c2ccc(Cl)cc2)nc2ccccn12 (single isomer, unassigned) [Example 16, tert-Butyl 5-{[2-(4-chlorophenyl)imidazo[1,2-a]pyridin-3-yl]methyl}-2,5-diazabicyclo[2.2.2]octane-2-carboxylate] | 1300 nM | 600 nM
O=C(C1CCCCC1)N1C2CCC1CN(Cc1c(-c3ccc(Cl)cc3)nc3ccccn13)C2 [Example 105] | 830 nM | 20 nM
COc1ccc(Cl)c(C(=O)N2C[C@@H]3CC[C@H]2CN3Cc2c(-c3ccc(Cl)cc3)nc3ccccn23)n1 (single isomer, unassigned; enantiomer 1) [Example 22] | 170 nM | 13 nM
COc1cccc(C(=O)N2C3CCC2CN(Cc2c(-c4ccc(Br)cc4)nc4ccccn24)C3)n1 [Example 98] | 450 nM | 14 nM
COc1ccc(F)c(C(=O)N2C3COCC2CN(Cc2c(-c4ccc(Cl)cc4)nc4ccccn24)C3)n1 [Example 30, (7-{[2-(4-Chlorophenyl)imidazo[1,2a]pyridin-3-yl]methyl}-3-oxa-7,9-diazabicyclo[3.3.1]non-9-yl)(3-fluoro-6-methoxypyridin-2-yl)methanone] | 770 nM | 21 nM
CN(C)C(=O)N1C2CCC1CN(Cc1c(-c3ccc(Cl)cc3)nc3ccccn13)C2 [Example 180, 3-{[2-(4-Chlorophenyl)imidazo[1,2-a]pyridin-3-yl]methyl}-N,N-dimethyl-3,8-diazabicyclo[3.2.1]octane-8-carboxamide] | 220 nM | 23 nM
COc1cccc(C(=O)N2CC3CCC(C2)N3Cc2c(-c3ccc(Br)cc3)nc3ccccn23)c1 [Example 84] | 1100 nM | 400 nM
Cc1ccccc1NC(=O)N1C2CCC1CN(Cc1c(-c3ccc(Cl)cc3)nc3ccccn13)C2 [Example 159, 3-{[2-(4-Chlorophenyl)imidazo[1,2-a]pyridin-3-yl]methyl}-N-(2-methylphenyl)-3,8-diazabicyclo[3.2.1]octane-8-carboxamide] | 2900 nM | 220 nM
Cc1csc(C(=O)N2C3CCC2CN(Cc2c(-c4ccc(Cl)cc4)nc4ccccn24)C3)n1 [Example 148, (3-{[2-(4-Chlorophenyl)imidazo[1,2-a]pyridin-3-yl]methyl}-3,8-diazabicyclo[3.2.1]oct-8-yl)(4-methyl-1,3-thiazol-2-yl)methanone] | 23 nM | 2.7 nM
O=C(C1CCCCC1)N1CC2CCC(C1)N2Cc1c(-c2ccc(Cl)cc2)nc2ccccn12 [Example 93] | 2300 nM | 510 nM
CC(C)c1ccc(-c2nc3ccccn3c2CN2CC3CCC2CN3C(=O)c2ccccc2F)cc1 (single isomer, unassigned) [Example 57] | 1400 nM | 240 nM
O=C(c1cc(F)ccc1Cl)N1CC2CCC1CN2Cc1c(-c2ccc(Cl)cc2)nc2ccccn12 (single isomer, unassigned) [Example 41] | 76 nM | 3.9 nM
Cn1ccnc1C(=O)N1CC2CCC1CN2Cc1c(-c2ccc(Cl)cc2)nc2ccccn12 (single isomer, unassigned) [Example 52] | 170 nM | 10 nM
COc1ccc(F)c(C(=O)N2CC3CCC2CN3Cc2c(-c3ccc(Br)cc3)nc3ccccn23)n1 (racemic) [Example 153, (5-{[2-(4-Bromophenyl)imidazo[1,2-a]pyridin-3-yl]methyl}-2,5-diazabicyclo[2.2.2]oct-2-yl)(3-fluoro-6-methoxypyridin-2-yl)methanone] | 1000 nM | 34 nM
O=C(N1CCCCC1)N1C2COCC1CN(Cc1c(-c3ccc(Cl)cc3)nc3ccccn13)C2 [Example 198, (7-{[2-(4-Chlorophenyl)imidazo[1,2-a]pyridin-3-yl]methyl}-3-oxa-7,9-diazabicyclo[3.3.1]non-9-yl)(piperidin-1-yl)methanone] | 810 nM | 60 nM
Cc1nc(C(=O)N2C3CCC2CN(Cc2c(-c4ccc(Cl)cc4)nc4ccccn24)C3)sc1C [Example 150, (3-{[2-(4-Chlorophenyl)imidazo[1,2-a]pyridin-3-yl]methyl}-3,8-diazabicyclo[3.2.1]oct-8-yl)(4,5-dimethyl-1,3-thiazol-2-yl)methanone] | 2700 nM | 210 nM
O=C(c1cccc(OC(F)(F)F)c1)N1C2CC1CN(Cc1c(-c3ccc(Cl)cc3)nc3ccccn13)C2 [Example 120] | 1100 nM | 180 nM
